Test results from ChEMBL document CHEMBL3400148, “Structure-based discovery of small molecule hepsin and HGFA protease inhibitors: Evaluation of potency and selectivity derived from distinct binding pockets” (Bioorg Med Chem, 2015).
Calls of active or inactive are those of the source. The calls are words filed in the database; no cut-off is given here.

Legend:
Serine protease hepsin = Serine protease hepsin (Homo sapiens, UniProt P05981); test: Inhibition of hepsin (unknown origin) using Boc-QAR-AMC as substrate after 30 mins prior to substrate addition by fluorescence assay
Sequence of Serine protease hepsin (P05981 1-162 limits assumed): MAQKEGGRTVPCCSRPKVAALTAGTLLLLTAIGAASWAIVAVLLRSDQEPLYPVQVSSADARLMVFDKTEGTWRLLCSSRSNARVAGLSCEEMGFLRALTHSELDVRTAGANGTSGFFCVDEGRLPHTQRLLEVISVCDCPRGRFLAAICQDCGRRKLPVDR
Sequence of Serine protease hepsin (P05981 163-417 limits assumed): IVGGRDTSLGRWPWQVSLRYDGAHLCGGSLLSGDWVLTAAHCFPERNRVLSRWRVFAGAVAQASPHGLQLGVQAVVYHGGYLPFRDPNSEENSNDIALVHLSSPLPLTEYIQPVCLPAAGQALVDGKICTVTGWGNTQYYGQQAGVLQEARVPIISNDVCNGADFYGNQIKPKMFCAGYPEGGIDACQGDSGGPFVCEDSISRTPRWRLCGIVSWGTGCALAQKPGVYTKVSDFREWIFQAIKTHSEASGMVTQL

[1] = molecular target: T1, Hepatocyte growth factor activator serine protease (Homo sapiens, UniProt Q04756); test: Inhibition of recombinant N-terminal His-tagged HGFA (unknown origin) expressed in baculovirus-infected Sf9 cells using Boc-QLR-AMC as substrate incubated for 30 mins prior to substrate addition by fluorescence assay
T1 sequence (Q04756 whole entry): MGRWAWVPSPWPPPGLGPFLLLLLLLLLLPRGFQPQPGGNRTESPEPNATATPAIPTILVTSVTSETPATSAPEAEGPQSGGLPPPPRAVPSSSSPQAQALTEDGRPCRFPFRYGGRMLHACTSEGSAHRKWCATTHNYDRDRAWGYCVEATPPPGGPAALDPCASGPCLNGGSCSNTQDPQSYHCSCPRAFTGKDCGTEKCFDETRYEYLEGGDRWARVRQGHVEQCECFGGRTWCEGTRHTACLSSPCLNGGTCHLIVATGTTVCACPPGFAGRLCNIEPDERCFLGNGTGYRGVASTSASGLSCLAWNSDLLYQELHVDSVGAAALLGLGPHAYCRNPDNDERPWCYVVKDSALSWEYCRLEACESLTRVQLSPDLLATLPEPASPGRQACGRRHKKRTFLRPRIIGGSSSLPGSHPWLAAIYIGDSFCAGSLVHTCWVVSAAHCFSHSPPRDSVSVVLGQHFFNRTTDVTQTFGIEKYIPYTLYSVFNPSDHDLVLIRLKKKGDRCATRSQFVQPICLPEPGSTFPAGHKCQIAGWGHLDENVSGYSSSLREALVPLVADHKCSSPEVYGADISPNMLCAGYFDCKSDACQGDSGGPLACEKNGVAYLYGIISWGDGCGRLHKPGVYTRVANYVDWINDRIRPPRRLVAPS

[2] = molecular target: T1, Hepatocyte growth factor activator serine protease; test: Inhibition of recombinant N-terminal His-tagged HGFA (unknown origin) expressed in baculovirus-infected Sf9 cells incubated for 30 mins prior to cromogenic substrate addition by spectrophotometry
[3] = molecular target: T2, Suppressor of tumorigenicity 14 protein (Homo sapiens, UniProt Q9Y5Y6); test: Inhibition of matripase (unknown origin) using Boc-QAR-AMC as substrate incubated for 30 mins prior to substrate addition by fluorescence assay
T2 sequence (Q9Y5Y6 whole entry): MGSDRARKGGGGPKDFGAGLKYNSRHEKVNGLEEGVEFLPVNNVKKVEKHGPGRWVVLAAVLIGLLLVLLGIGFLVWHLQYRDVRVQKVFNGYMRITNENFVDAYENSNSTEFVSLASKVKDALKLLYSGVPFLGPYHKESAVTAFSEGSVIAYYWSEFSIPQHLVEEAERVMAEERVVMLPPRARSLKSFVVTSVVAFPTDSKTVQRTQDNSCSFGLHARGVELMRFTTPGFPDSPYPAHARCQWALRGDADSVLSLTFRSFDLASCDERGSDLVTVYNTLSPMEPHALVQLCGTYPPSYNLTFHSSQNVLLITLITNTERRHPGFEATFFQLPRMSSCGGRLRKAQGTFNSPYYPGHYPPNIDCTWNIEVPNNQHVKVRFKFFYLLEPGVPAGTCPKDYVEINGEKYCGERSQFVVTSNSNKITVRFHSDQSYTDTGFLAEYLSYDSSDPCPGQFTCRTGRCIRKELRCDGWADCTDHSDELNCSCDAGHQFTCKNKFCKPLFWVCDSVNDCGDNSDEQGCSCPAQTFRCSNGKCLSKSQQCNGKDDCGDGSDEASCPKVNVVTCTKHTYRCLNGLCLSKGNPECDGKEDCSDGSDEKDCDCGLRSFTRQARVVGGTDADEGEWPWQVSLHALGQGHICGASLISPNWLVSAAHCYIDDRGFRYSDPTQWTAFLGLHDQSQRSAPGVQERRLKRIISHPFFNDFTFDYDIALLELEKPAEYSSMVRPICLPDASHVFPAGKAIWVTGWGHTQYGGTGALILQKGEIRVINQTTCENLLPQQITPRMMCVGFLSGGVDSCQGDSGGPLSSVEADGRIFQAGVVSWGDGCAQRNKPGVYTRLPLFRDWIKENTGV

[4] = molecular target: T1, Hepatocyte growth factor activator serine protease; test: Inhibition of HGFA (unknown origin) after 40 mins by Eadie-Hofstee plot analysis
[5] = molecular target: T3, Hepatocyte growth factor activator serine protease (Homo sapiens) (UniProt Q04756); test: Inhibition of recombinant N-terminal His-tagged HGFA (unknown origin) expressed in baculovirus-infected Sf9 cells using Boc-QLR-AMC as substrate up to 20 uM incubated for 30 mins prior to substrate addition by fluorescence assay
T3 sequence (whole entry): T1 sequence (Q04756 whole entry)

[H]/N=C(/N)c1ccc(NCc2nc3cc(C(=O)N(CCC(=O)O)c4ccccn4)ccc3n2C)cc1 [DABIGATRAN]
Ki (Serine protease hepsin): 0.835 µM

CC(C)c1cc(C(C)C)c(S(=O)(=O)N[C@@H](Cc2cccc(C(=N)N)c2)C(=O)N2CCN(C(=O)C3CCNCC3)CC2)c(C(C)C)c1
Ki (Serine protease hepsin): 7.4 µM
Ki [1]: 5.5 µM

COC(=O)c1ccc2cc(OC(=O)c3ccc(NC(=N)N)cc3)ccc2c1
IC50 [2]: 0.6 µM

Cc1ccc(S(=O)(=O)N[C@@H](Cc2cccc(C(=N)N)c2)C(=O)N2CCC(c3ccccc3)CC2)cc1
Ki (Serine protease hepsin): 4.7 µM
Ki [3]: 0.48 µM

N=C(N)Nc1ccc(C(=O)Oc2ccc([N+](=O)[O-])cc2Cl)cc1
IC50 [2]: 0.3 µM

N=C(N)c1cccc(C[C@H](NS(=O)(=O)c2ccc3ccccc3c2)C(=O)N2CCN(C(=O)NCc3ccccc3)CC2)c1
Ki [3]: 2.6 µM

CCc1cc(C(Nc2ccc(C(=N)N)cc2)C(=O)NS(=O)(=O)c2cn(C)cn2)cc2c(C)coc12 (racemic)
Ki (Serine protease hepsin): 0.553 µM
Ki [1]: 7.1 µM
Ki [3]: 7.18 µM

N=C(N)Nc1ccc(NC(=O)c2ccccc2)cc1
IC50 [2]: > 50 µM

N=C(N)Nc1ccc(C(=O)Oc2ccc([N+](=O)[O-])cc2)cc1
IC50 [2]: 0.82 µM

CCc1cc([C@@H](Nc2ccc(C(=N)N)cc2)C(=O)NS(=O)(=O)c2cn(C)cn2)cc2c(C)coc12
Ki [4]: 0.59 µM

COC(=O)c1ccc2cc(NS(=O)(=O)c3ccc(NC(=N)N)cc3)ccc2c1
IC50 [2]: > 50 µM

N=C(N)Nc1ccc(C(=O)Oc2cccc([N+](=O)[O-])c2)cc1
IC50 [2]: 3 µM

CN(C)C(=O)COC(=O)Cc1ccc(OC(=O)c2ccc(NC(=N)N)cc2)cc1 [CAMOSTAT]
IC50 [2]: 32 µM

Cc1ccc(S(=O)(=O)N[C@@H](Cc2cccc(C(=N)N)c2)C(=O)N2CCC[C@H](NC(=O)OCc3ccccc3)C2)cc1
Ki [3]: 1.2 µM

CCCCCCNC(=O)N1CCN(C(=O)[C@H](Cc2cccc(C(=N)N)c2)NS(=O)(=O)c2ccc3ccccc3c2)CC1
Ki (Serine protease hepsin): 1.2 µM

N=C(N)c1cccc(C[C@H](NS(=O)(=O)c2ccc3ccccc3c2)C(=O)N2CCN(C(=O)c3csc4ccccc34)CC2)c1
Ki (Serine protease hepsin): 3.5 µM
Ki [3]: 1.5 µM

N=C(N)c1cccc(C[C@H](NS(=O)(=O)c2ccc3ccccc3c2)C(=O)N2CCN(C(=O)NCc3ccc(Br)cc3)CC2)c1
Ki [3]: 4.6 µM

N=C(N)Nc1ccc(C(=O)Nc2ccccc2)cc1
IC50 [2]: > 50 µM

CC(C)c1cc(C(C)C)c(S(=O)(=O)N[C@@H](Cc2cccc(C(=N)N)c2)C(=O)N2CCN(C(=O)C3CCN(C(=N)N)CC3)CC2)c(C(C)C)c1
Ki (Serine protease hepsin): 1.58 µM
Ki [1]: 17 µM
Ki [3]: 0.0043 µM

Cc1ccc(S(=O)(=O)N[C@@H](CCCCN)C(=O)CCl)cc1
inhibition [5]: inactive

O=C(NC[C@H]1CN(c2ccc(N3CCOCC3=O)cc2)C(=O)O1)c1ccc(Cl)s1 [RIVAROXABAN]
Ki [3]: 3.35 µM

N=C(N)c1cccc(C[C@H](NS(=O)(=O)c2ccc3ccccc3c2)C(=O)N2CCC[C@@H](NC(=O)OCc3ccccc3)C2)c1
Ki (Serine protease hepsin): 2.6 µM
Ki [3]: 6.7 µM

Cc1ccc(S(=O)(=O)Nc2ccc(NC(=N)N)cc2)cc1
IC50 [2]: > 50 µM

N=C(N)c1ccc2cc(OC(=O)c3ccc(N=C(N)N)cc3)ccc2c1 [NAFAMOSTAT]
IC50 [2]: 0.15 µM

COC(=O)c1ccc(OC(=O)c2ccc(NC(=N)N)cc2)cc1
IC50 [2]: 1.1 µM

N=C(N)Nc1ccc(C(=O)Oc2ccc(C(N)=O)cc2)cc1
IC50 [2]: 6.8 µM

Cc1ccc(S(=O)(=O)N[C@@H](Cc2cccc(C(=N)N)c2)C(=O)N2CCN(C(=O)NCCc3ccccc3)CC2)cc1
Ki (Serine protease hepsin): 0.67 µM
Ki [1]: > 50 µM
Ki [3]: 2.5 µM
